Assay results published in patent publication US5272164A, “Carboximidamide derivatives” (Kirin Beer Kabushiki Kaisha, priority 1988, dated 1993).

Legend:
isolated rat heart = test: Effect on isolated rat heart (Langendorff's method); parameters: species or system male rats; settings: 1 × 10^-8 mol/min, n=3, mean ± S.D.; for Coronary Perfusate Flow: ** p < 0.01 as compared with nicorandil
Protocol: The effect of the compound of the present invention on heart of rats was examined by using the Langendorff's method [test compound: N-cyano-N'-(2-nitroxyethyl)-3-pyridinecarboximidamide (compound (13))]. Hearts were excised from male rats (weighing 250-350 g) and perfused at 80 cmH2 O in a Langendorff fashion. Krebs-Hensaleit bicarbonate solution (pH 7.4, 37° C.) containing an 11 mM glucose which was oxygenated with 95% O2 -5% CO2 gas mixture was used as a perfusate. The left ventricular pressure was recorded by inserting a latex balloon into the left ventricle, and heart rate was determined from the pulse of it. Coronary perfusate flow as also measured with an electromagnetic flowmeter. The experiments were carried out by perfusing a perfusate containing the compound (13) for 10 minutes after an initial equilibration period for 30 minutes. As the control compound, nicorandil which has an effect opening potassium channel and is similar to the test compound in structure was used. The changes in the coronary perfusate flow and the cardiac function (heart rate×left ventricular pressure) caused by these compounds were expressed as percent changes from the preperfusion values of the compound (13) or nicorandil.

isolated heart of rats = test: Effect on myocardiac injury induced by re-perfusion after ischemia (isolated rat heart); settings: mean ± SD
Protocol: The cardiac muscle protecting effect of the compound of the present invention was tested by using the isolated heart of rats [test compound: N-cyano-N'-(2-nitroxyethyl)- 3-pyridinecarboximidamide (compound (13))]. The Langendorff's method was used in the same manner as in the aforementioned Referential Example 1)-6. The isolated heart was perfused with a perfusate for 30 minutes and then with a perfusate containing the test compound for 10 minutes, and perfusion was stopped so that the heart was in the so-called "ischemic state". Pacing was performed during the ischemia. […] Parameters of cardiac function after the onset of re-perfusion was monitored for 30 minutes, and the heart was quickly freezed. The amount of ATP in the heart muscle was extracted with perchloric acid and determined by HPLC. Nicorandil was used as a control.
The recovery rate of the cardiac function (heart rate×left ventricular pressure) after onset of reperfusion was calculated based on the cardiac function prior to the perfusion of the compound (13) and nicorandil as 100%. The amount of ATP in the heart muscle was also determined.

potassium channel [1] = test: Potassium channel activating effect (86Rb efflux from rat thoracic aortae); assay type: cell-based, male Wistar rats; settings: 10^-4 M, 8 minutes, percent of efflux before application
Protocol: Male Wistar rats (weighing 250-350 g) were dehematized to death, and thoracic aortae were rapidly isolated. The aorta was opened along the longitudinal axis to prepare a flat sheet. The preparation was loaded with ^86 Rb in the Krebs-Ringer solution which contained ^86 Rb in the concentration of 10 μCi/ml and was gassed with 95% 02 5% CO2 at 37° C. for 2 hours. The preparation was then transferred to a Krebs-Ringer solution not containing ^86 Rb, and washed to remove excess radioactivity for 18 minutes by refreshing the solution every 2 minutes. Finally the preparation was placed into a Krebs-Ringer solution containing each compound (10^-4 M) for 8 minutes.
The amount of ^86 Rb efflux from the preparation in each period was determined with a γ-counter.
The increment in efflux rate during the application of the compound was expressed as percent of the efflux before the application of the compound.

potassium channel [2] = settings: in words; Trends in Pharmacological Sciences, 8, 283, 1987; cited from earlier work

| Compound | Coronary Perfusate Flow (isolated rat heart) | Increment of Efflux (potassium channel [1]) | further results |
| --- | --- | --- | --- |
| O=C(NCCO[N+](=O)[O-])c1cccnc1 [Nicorandil] | 3.3 ± 5.6 % change | – | Cardiac Function (heart rate×left ventricular pressure) (isolated rat heart): 3.7 ± 6.7 percent change; Recovery rate of cardiac function (isolated heart of rats; 1 × 10^-6 mole/min, n=4): 12.7 ± 8.2% |
| N#CNC(=NCc1ccccc1)c1cccnc1 [(17), N-cyano-N'-benzyl-3-pyridinecarboximidamide] | – | 135.41% | – |
| N#CNC(=NCCO[N+](=O)[O-])c1ccncc1 [(41), N-cyano-N'-(2-nitroxyethyl)-4-pyridinecarboximidamide] | – | 126.88% | – |
| N#CNC(=NCCc1ccccc1)c1cccnc1 [(27), N-cyano-N'-(2-phenylethyl)-3-pyridinecarboximidamide] | – | 206.61% | – |
| N#CNC(=NCCO[N+](=O)[O-])c1cccnc1 [Compound (13), N-cyano-N'-(2-nitroxyethyl)-3-pyridinecarboximidamide] | 51.3 ± 3.2 % change | 213.53% | Recovery rate of cardiac function (isolated heart of rats; 1 × 10^-7 mole/min, n=3, ** p < 0.01 vs physiological saline group): 67.5 ± 6.0% |
| CC1(C)Oc2ccc(C#N)cc2[C@@H](N2CCCC2=O)[C@H]1O (relative stereo) [chromakalim] | – | – | potassium channel activating effect (potassium channel [2]): potassium channel activating effect |
